Test results published in PubChem BioAssay AID423 (Public Access to Neuroactive & Anticonvulsant Chemical …, 2006).
The source made the active and inactive calls.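 Rule for the calls: active = any mouse or rat spared a seizure in electric shock or chemically induced seizure tests, at any tested dose or timing; inactive = no animal spared a seizure in any test.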

System: mouse/rat MES, scMET, 6Hz seizure protection, qualitative
Assay: mouse and rat seizure model outcomes with toxicity – qualitative, MES, scMET, 6Hz, i.p. and oral, in vivo study, summary (AID 423)

Row | SMILES | outcome
1 | CCC1(C)CC(=O)NC1=O (stereo not given) | active; inactive
2 | CCCCC1C(=O)N(c2ccccc2)N(c2ccccc2)C1=O | active; inactive
3 | COC(=O)Nc1nc2ccc(C(=O)c3ccccc3)cc2[nH]1 | active; inactive
4 | O=C1CC2OCC=C3CN4CCC56c7ccccc7N1C5C2C3CC46 (stereo not given) | active; inactive
5 | CCN(CC)CC(=O)Nc1c(C)cccc1C | active
6 | CC(C)[N+](C)(CCOC(=O)C1c2ccccc2Oc2ccccc21)C(C)C | active; inactive
7 | CC(=O)OCC[N+](C)(C)C | active; inactive
8 | NC(=O)N1c2ccccc2C=Cc2ccccc21 | active
9 | CCC1(c2ccccc2)C(=O)NC(=O)NC1=O | active
10 | O=C1CN=C(c2ccccc2Cl)c2cc([N+](=O)[O-])ccc2N1 | active
